Data on one compound can be found in US10357477B2, “Anticancer compounds” (REGENTS OF THE UNIVERSITY OF MINNESOTA, priority 2016, dated 2019).

Molecules are shown by their SMILES. In brackets after ≈: the same amount, converted by molar mass.

The subject of one data set is MIA PaCa-2 cells. Put plainly: Cell viability assay (MTT) in MIA PaCa-2 cells. As to conditions: Homo sapiens, antiproliferative activity, 72 h. It counts as cell-based. The method in brief:
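MIA PaCa-2 cells exposed 72 h at 37° C to 2-fold serial compound dilutions from 100 μM final, 0.5% DMSO, in triplicate. Viability by MTT (3 h), formazan read at 570 nm minus 650 nm; EC50 from curve fit.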

For the next data set, the system named is Panc-1 cells. Kind of data set: Cell viability assay (MTT) in Panc-1 cells. Type of data set: cell-based. As to conditions: Homo sapiens, antiproliferative activity, 72 h. In a few lines: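 After 24 h plating, Panc-1 cells were exposed for 72 h at 37 °C to compound in a nine-point 3-fold series from 100 uM final, in triplicate. Viability read by MTT reduction (570 nm, 690 nm background); EC50 fitted from the curves.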

The test system of data set [1] is MCF10A cells (normal human mammary cells). Put plainly: Cell viability assay (MTT) in MCF10A cells. Type of data set: cell-based. As to conditions: MCF-10A, 72 h. The method, then:
MCF10A cells are maintained in minimum essential medium (MEM) (Invitrogen 11095) supplemented with 10% FBS (Invitrogen 16000), 1% 10× non-essential amino acids (NEAA) (Invitrogen 11140), 1% Penicillin/Streptomycin (Invitrogen 15140), 1% GlutaMAX (Invitrogen 35050-061), 20 ng/mL EGF, […] hydrocortisone, 100 ng/mL cholera toxin, 10 μg/mL insulin.
Cells were plated in 96-well plates at 25×10^4 cells/ml. After 24 hours, compounds were added at 9, 3× dilutions in triplicate from 100 uM final concentration in the appropriate growth media. Plates were incubated for 72 hours at 37° C. in a 5% CO2/95% air humidified atmosphere after which time the media was removed and MTT was added in RPMI phenol red free media. The MTT was removed after 3 hours and formazan crystals were solubilized with 200 μL of isopropanol. Plates were read on a Molecular Devices SpectraMax i3 spectrophotometer at 570 nm for formazan and 690 nm for background subtraction. EC50 values were calculated by fitting the data in GraphPad Prism software.

Data set [2] in a line: Plasma stability assay, mouse plasma. It counts as in vitro ADME. The settings on record: 37° C. The protocol:
(§1) The plasma stability assay was performed in triplicate by incubating a compound in normal mouse and human plasma at 37° C. At 0, 1, 3, 6, and 24 h, aliquots of the plasma mixture were taken and quenched with 3 volumes of acetonitrile containing an appropriate internal standard. The samples were then vortexed and centrifuged at 14,000 rpm for 5 min. The supernatants were collected and analyzed by LC-MS/MS to determine the remaining percentage at various time points.
(§2) Quantification and analysis of compounds in biological samples were carried out on an AB Sciex QTrap 5500 mass spectrometer coupled with an Agilent 1260 Infinity HPLC. The chromatographic separation of compounds was achieved using a Phenomenex Kinetex C18 column (50×2.1 mm, 2.6 μm), and MS/MS analysis was conducted using an ESI ion source with MRM detection. The MS/MS detection parameters including declustering potential (DP), entrance potential (EP), collision energy (CE), and collision cell exit potential (CXP) were optimized for each compound.

A short description of data set [3]: Plasma stability assay, human plasma. It counts as in vitro ADME. The settings on record: 37° C. The method, then: as §1, §2
A short description of data set [4]: Microsomal stability assay, mouse liver microsomes. The settings on record: pH 7.4; mouse liver microsomes 0.5 mg/mL, 1 mM NADPH, 1 μM compound; read-out: Microsomal Stability t1/2 Mouse. Type of data set: in vitro ADME. The method, then: (§3) The in vitro microsomal stability assay was conducted in triplicate in mouse and human liver microsomal systems. In a typical incubation, a compound (typically 1 μM final concentration) was spiked into the reaction mixture containing 0.5 mg/mL of liver microsomal protein and 1 mM of NADPH in 0.1 M potassium phosphate buffer (pH 7.4) at 37° C. At various time points, 1 volume of reaction aliquot was taken and quenched with 3 volumes of acetonitrile with an appropriate internal standard. The samples were then vortexed and centrifuged at 14,000 rpm for 5 min. The supernatants were collected and analyzed by LC-MS/MS to determine the in vitro metabolic half-life (t1/2) and intrinsic clearance (CLint). Verapamil was used as a positive control.
as §2

Data set [5] can be described thus: Microsomal stability assay, human liver microsomes. Type of data set: in vitro ADME. The settings on record: pH 7.4; human liver microsomes 0.5 mg/mL, 1 mM NADPH, 1 μM compound; read-out: Microsomal Stability t1/2 Human. The method, then: as §3, §2
Data set [6] in a line: Thermodynamic solubility assay. It counts as physicochemical. As to conditions: aqueous buffer, thermodynamic from solid, DPBS pH=7.4, 48 h, ambient temperature. The protocol:
Briefly, a saturated solution was made by adding DPBS to the solid compound. The mixture was shaken at 200 rpm for 48 h in a MaxQ 6000 orbital shaker at ambient temperature to allow equilibrium between the solid and dissolved compound. The suspension was then filtered through a 0.45 μm PVDF syringe filter and the filtrate was collected for analysis using UV spectrometry (SpectraMax M5e, Molecular Devices) at λ=240 nm.

Consider `CNC(=O)c1cccc(Cn2nc(C)c(NC(=O)c3ccc(COc4ccc(C(F)(F)F)cc4)cc3)c2C)c1` [Compound D9c, 3-((3,5-Dimethyl-4-(4-((4-(trifluoromethyl)phenoxy)-methyl)benzamido)-1H-pyrazol-1-yl)methyl)-N-methylbenzamide], for which the results for the EC50 (with MIA PaCa-2 cells; in the data set on Panc-1 cells; in data set [1]) were 0.8 µM, 0.21 µM and 6.7 µM, respectively. Moreover, the “Plasma Stability (% remaining, 6 h/24 h) Mouse” value was 91% in data set [2] (6 h) and 77% in data set [2] (24 h). The entries for the “Plasma Stability (% remaining, 6 h/24 h) Human” value in data set [3] (6 h) and in data set [3] (24 h) were 99% and 100%, respectively. The half-life at 1 μM in data set [4] worked out at 60 min; in data set [5], 34 min. The concentration in solution in data set [6] (solubility at 48 h) was 67.3 ± 5.2 µM (≈ 36.1 µg/mL).
